Source: patent US11254680B2, “Cyclic iminopyrimidine derivatives as kinase inhibitors” (ABM Therapeutics Corporation, priority 2017, dated 2022)

Tests used:
P-glycoprotein (MDR1) = assay: MDCK-MDR1 Permeability Assay; assay type: in vitro ADME, canine; conditions: dog; for efflux ratio at 120 min: MDCK-MDR1, Papp(B-A)/Papp(A-B); for Papp A→B at 120 min: MDCK-MDR1, apical to basolateral; for Papp A→B at 120 min / Papp B→A at 120 min: 1-30 μM; for Papp B→A at 120 min: MDCK-MDR1, basolateral to apical
Method: MDCK-MDR1 cells originate from transfection of Madin Darby canine kidney (MDCK) cells with the MDR1 gene, the gene encoding for the efflux protein, P-glycoprotein. This cell line is ideal for identifying substrates of P-gp, with or without an inhibitor. The cells are seeded on a Multiscreen™ plate to form a confluent monolayer over 4 days prior to the experiment. On day 4, the test compound (1-30 μM concentration) is added to the apical side of the membrane and the transport of the compound across the monolayer is monitored over a 120 minutes time period. To study drug efflux, it is also necessary to investigate transport of the compound from the basolateral compartment to the apical compartment and calculate an efflux ratio.
(§1) The permeability coefficient (Papp) is calculated from the following equation: Papp=[(dQ/dt)/C0×A] where dQ/dt is the rate of permeation of the drug across the cells, C0 is the donor compartment concentration at time zero and A is the area of the cell monolayer.
An efflux ratio is calculated from the mean apical to basolateral (A-B) Papp data and basolateral to apical (B-A) Papp data. Efflux Ratio=Papp(B−A)/Papp(A−B)

HT-29 colon cancer cells = assay: Antiproliferation assay in HT-29 cells by CellTiter Glo; assay type: cell-based; conditions: Homo sapiens, 72 hours or 144 hours
[1] = Caco-2 Permeability Assay; assay type: in vitro ADME; conditions: human; for efflux ratio at 120 min: Caco-2; for Papp A→B at 120 min: Caco-2, apical to basolateral; for Papp A→B at 120 min / Papp B→A at 120 min: 1-30 μM; for Papp B→A at 120 min: Caco-2, basolateral to apical
Method: Caco-2 cells are widely used as an in vitro assay to measure the permeability of a drug compound. The Caco-2 cell line is derived from a human colorectal carcinoma, and when cultured, the cells spontaneously differentiate into monolayers of polarized enterocytes. Caco-2 cells express P-glycoprotein and breast cancer resistance protein, two of the most relevant cell membrane active transporters that affect drug compound's permeability into cells and blood brain barrier.
The cells are seeded on Millipore Millicell plates and form a confluent monolayer over 20 days prior to the experiment. On day 20, the test compound (1-30 μM concentration) is added to the apical side of the membrane and the transport of the compound across the monolayer is monitored over a 120 minutes time period. To study drug efflux, it is also necessary to investigate transport of the compound from the basolateral compartment to the apical compartment.
as §1, with “monolayer. C0 is obtained from analysis of the dosing solution at the start experiment.” for “monolayer.”

A375 melanoma cells = assay: Antiproliferation assay in A375 cell line by CellTiter Glo; assay type: cell-based; conditions: Homo sapiens, A-375, 72 hours or 144 hours
Method: In vitro anti-proliferation study of test compounds in A375 cell line by CellTiter Glo. The cells were routinely maintained as a monolayer culture in corresponding culture medium, at 37° C. with 5% CO2 in air.
Harvest the exponential growth cells by trypsin-EDTA digestion. Re-suspend the cell pellet in fresh culture medium, and adjust the concentration to needed (the cell density per well was listed in following form). The cell viability is over 98% by Trypan blue staining. Inoculate cells into 96 wells plates according to the plate map (90 μL/well). Incubate the plates at 37° C. and 5% CO2 overnight. The next day, prepare the 10×compound containing medium according to the plate map. Transfer 10 μL of 10×compound containing medium into each well of the assay plates (the final DMSO concentration is 0.5%). Gently mix the medium and incubate at 37° C. and 5% CO2 for another 72 hours or 144 hours.
Prepare the reagent according to the manufacture's instruction. Add 50 μL CellTiter-Glo Reagent in each well. Mix contents for 2 minutes on an orbital shaker to induce cell lysis. Allow the plate to incubate at room temperature for 10 minutes to stabilize luminescent signal. Transfer 100 μL of reaction contents of each well from the clear plates into white walled/white opaque 96-well plates. Record the luminescence on Envision.
Using the luminescence measurements [time zero (T0), control growth (C), and test growth in the presence of drug at the six concentration levels (Ti)], the percentage growth is calculated at each of the drug concentrations levels.
Percentage growth inhibition (GI) is calculated as: GI (%)═[(Ti-T0)/(C-T0)]×100 for concentrations for which Ti>=T0, and GI (%)═[(Ti-T0)/T0]×100 for concentrations for which Ti<T0. Data were analyzed using the XLFit (Excel) tool, fitting to a 4-parameter equation to generate concentration response curves. Concentration of compound that inhibits 50% of control cell growth (GI50) was back-interpolated when y=50% of net growth of DMSO treated control wells using nonlinear regression with the equation: f(x) 205 [fit=(A+((B−A)/(1+((C/x)^))))], where A is the minimum response (Ymin), B is the maximum response (Ymax), C is the inflection point of the curve (Re GI50) and D is the Hill coefficient. Growth inhibition of 50% (GI50) was calculated at the 50% Growth inhibition on the curve. Index values were the sum of Inhibition rate (IR) at each tested compound concentration.

[2] = Mouse Pharmacokinetics Study; assay type: in vivo; conditions: CD-1 mice
Text: The pharmacokinetic properties of selected compounds were studied CD-1 mice via intravenous and oral administration by using a standard protocol. The test articles were formulated in 20% Hydroxypropyl-beta-cyclodextrin, either as a clear solution or fine suspension.

Structure (SMILES) | efflux ratio at 120 min (P-glycoprotein (MDR1)) | Papp A→B at 120 min (P-glycoprotein (MDR1)) [×10⁻⁶ cm/s] | Papp B→A at 120 min (P-glycoprotein (MDR1)) [×10⁻⁶ cm/s] | GI50 (HT-29 colon cancer cells) [nM] | efflux ratio at 120 min [1] | Papp A→B at 120 min [1] [×10⁻⁶ cm/s] | Papp B→A at 120 min [1] [×10⁻⁶ cm/s] | GI50 (A375 melanoma cells) [nM] | F ([2]; PO 30 mg/kg) [%] | Vd ([2]; mouse, plasma, IV 2.5 mg/kg) [L/kg] | half-life ([2]; mouse, plasma, IV 2.5 mg/kg, 20% Hydroxypropyl-beta-cyclodextrin) [min] | clearance ([2]; mouse, plasma, IV 2.5 mg/kg, read-out: Clp) [mL/min/kg] | AUC ([2]; mouse, PO 30 mg/kg, plasma) [µg·h/mL] | Cmax ([2]; mouse, PO 30 mg/kg, plasma) [ng/mL] | Tmax ([2]; mouse, PO 30 mg/kg, plasma) [h]
CCCS(=O)(=O)Nc1cccc(Oc2ccc3c(c2)C2=NCCN2C=N3)c1C#N [Compound 1, N-(2-Cyano-3-((2,3-dihydroimidazo[1,2-c]quinazolin-9-yl)oxy)phenyl)propane-1-sulfonamide] | 6.53 | 3.65 | 23.8 | < 100 | 2.92 | 6.42 | 18.7 | < 100 | 112 ± 14 | 0.348 ± 0.037 | 88.2 ± 11.4 | 2.77 ± 0.52 | 207 ± 25.9 | 37300 ± 6240 | 1
CCCS(=O)(=O)N(C)c1cccc(Oc2ccc3c(c2)C2=NCCN2C=N3)c1C#N [Compound 2, N-(2-Cyano-3-((2,3-dihydroimidazo[1,2-c]quinazolin-9-yl)oxy)phenyl)-N-methylpropane-1-sulfonamide] | 2.63 | 19 | 50 | – | – | – | – | > 1000 | – | – | – | – | – | – | –
CCCS(=O)(=O)Nc1ccc(F)c(Oc2ccc3c(c2)C2=NCCN2C=N3)c1C#N [Compound 3, N-(2-Cyano-3-((2,3-dihydroimidazo[1,2-c]quinazolin-9-yl)oxy)-4-fluorophenyl)propane-1-sulfonamide] | 9.85 | 2.15 | 21.2 | – | 1.48 | 9.24 | 13.7 | < 100 | – | – | – | – | – | – | –
CCCS(=O)(=O)Nc1c(F)ccc(Oc2ccc3c(c2)C2=NCCN2C=N3)c1C#N [Compound 5, N-(2-Cyano-3-((2,3-dihydroimidazo[1,2-c]quinazolin-9-yl)oxy)-6-fluorophenyl)propane-1-sulfonamide] | 1.82 | 1.21 | 2.19 | – | – | – | – | 100 to 1000 | – | – | – | – | – | – | –
CCCS(=O)(=O)Nc1cccc(Oc2ccc3c(c2)C2=NCCN2C=N3)c1F [Compound 9, N-(3-((2,3-Dihydroimidazo[1,2-c]quinazolin-9-yl)oxy)-2-fluorophenyl)propane-1-sulfonamide] | 2.47 | 17.6 | 43.4 | – | – | – | – | 100 to 1000 | – | – | – | – | – | – | –
CCCS(=O)(=O)Nc1cccc(Oc2ccc3c(c2)C2=NCCN2C=N3)c1C(F)(F)F [Compound 11, N-(3-((2,3-Dihydroimidazo[1,2-c]quinazolin-9-yl)oxy)-2-(trifluoromethyl)phenyl)propane-1-sulfonamide] | 1.22 | 34.6 | 42.3 | – | – | – | – | 100 to 1000 | – | – | – | – | – | – | –
CCCS(=O)(=O)Nc1cccc(Oc2ccc3c(c2)C2=NCCN2C=N3)c1[N+](=O)[O-] [Compound 12, N-(3-((2,3-Dihydroimidazo[1,2-c]quinazolin-9-yl)oxy)-2-nitrophenyl)propane-1-sulfonamide] | 4.3 | 6.6 | 28.4 | – | – | – | – | < 100 | – | – | – | – | – | – | –
N#Cc1c(NS(=O)(=O)c2ccccc2F)cccc1Oc1ccc2c(c1)C1=NCCN1C=N2 [Compound 14, N-(2-Cyano-3-((2,3-dihydroimidazo[1,2-c]quinazolin-9-yl)oxy)phenyl)-2-fluorobenzenesulfonamide] | 2.73 | 3.03 | 8.29 | – | 2.77 | 6.37 | 17.7 | < 100 | – | – | – | – | – | – | –
N#Cc1c(NS(=O)(=O)c2cccs2)cccc1Oc1ccc2c(c1)C1=NCCN1C=N2 [Compound 15, N-(2-Cyano-3-((2,3-dihydroimidazo[1,2-c]quinazolin-9-yl)oxy)phenyl)thiophene-2-sulfonamide] | 1.73 | 3.1 | 5.36 | – | 2.94 | 5.08 | 14.9 | 100 to 1000 | – | – | – | – | – | – | –
CCCS(=O)(=O)Nc1cccc(Oc2ccc3c(c2)C2=NCCCN2C=N3)c1C#N [Compound 16, N-(2-cyano-3-((3,4-dihydro-2H-pyrimido[1,2-c]quinazolin-10-yl)oxy)phenyl)propane-1-sulfonamide] | 8.79 | 1.01 | 8.89 | < 100 | – | – | – | < 100 | – | – | – | – | – | – | –
CCCS(=O)(=O)Nc1ccc(F)c(Oc2ccc3c(c2)C2=NCCCN2C=N3)c1C#N [Compound 17, N-(2-cyano-3-((3,4-dihydro-2H-pyrimido[1,2-c]quinazolin-10-yl)oxy)-4-fluorophenyl)propane-1-sulfonamide] | 13.2 | 0.7 | 9.28 | – | – | – | – | < 100 | – | – | – | – | – | – | –
CCCS(=O)(=O)Nc1cccc(Oc2ccc3c(c2)C2=NCCCN2C=N3)c1F [Compound 18, N-(3-((3,4-Dihydro-2H-pyrimido[1,2-c]quinazolin-10-yl)oxy)-2-fluorophenyl)propane-1-sulfonamide] | – | – | – | 100 to 1000 | 2.2 | 11.3 | 24.9 | < 100 | – | – | – | – | – | – | –
CCCS(=O)(=O)Nc1nccc(Oc2ccc3c(c2)C2=NCCCN2C=N3)c1[N+](=O)[O-] [Compound 23, N-(4-((3,4-Dihydro-2H-pyrimido[1,2-c]quinazolin-10-yl)oxy)-3-nitropyridin-2-yl)propane-1-sulfonamide] | – | – | – | > 1000 | – | – | – | > 1000 | – | – | – | – | – | – | –
CCCS(=O)(=O)Nc1nccc(Oc2ccc3c(c2)C2=NCCCN2C=N3)c1Cl [Compound 26, N-(3-Chloro-4-((3,4-dihydro-2H-pyrimido[1,2-c]quinazolin-10-yl)oxy)pyridin-2-yl)propane-1-sulfonamide] | 4.98 | 3.95 | 19.6 | < 100 | – | – | – | < 100 | – | – | – | – | – | – | –
O=S(=O)(Nc1cccc(Oc2ccc3c(c2)C2=NCCN2C=N3)c1Cl)N1CC[C@@H](F)C1 [Compound 46, (R)—N-(2-Chloro-3-((2,3-dihydroimidazo[1,2-c]quinazolin-9-yl)oxy)phenyl)-3-fluoropyrrolidine-1-sulfonamide] | 2.79 | 20.8 | 57.9 | – | – | – | – | < 100 | – | – | – | – | – | – | –
